Reference: ChEMBL document CHEMBL1201862, “PubChem BioAssay data set” (2004)
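1) Cells in 96-well plates. 2) Compound, 48 h, 5 concentrations. 3) Linear interpolation between surrounding doses. 4) Unreached endpoint = highest concentration. The concentration for 50% growth inhibition is given as GI50.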 Active and inactive are the calls of the source. Rule as the data show it: active = GI50 up to about 1.1 µM and inactive = higher.

Key:
Test in all cases: NCI-60 cell line screen, 48 h
HL-60 = system: HL-60
RXF 393 = system: RXF 393
CCRF-CEM = system: CCRF-CEM
COLO 205 = system: COLO 205
SF-268 = system: SF-268
KM12 = system: KM12
EKVX = system: EKVX
PC-3 = system: PC-3
IGROV-1 = system: IGROV-1
NCI-H226 = system: NCI-H226
HOP-92 = system: HOP-92
SN12C = system: SN12C
UACC-62 = system: UACC-62
HT-29 = system: HT-29
MCF7 = system: MCF7
DU-145 = system: DU-145
T47D = system: T47D
NCI-H23 = system: NCI-H23
NCI/ADR-RES = system: NCI/ADR-RES
K562 = system: K562
U-251 = system: U-251
Hs-578T = system: Hs-578T
LOX IMVI = system: LOX IMVI
Malme-3M = system: Malme-3M
A549 = system: A549
OVCAR-3 = system: OVCAR-3
OVCAR-8 = system: OVCAR-8
UACC-257 = system: UACC-257
M14 = system: M14
RPMI-8226 = system: RPMI-8226
SNB-75 = system: SNB-75
HCT-116 = system: HCT-116
SNB-19 = system: SNB-19
NCI-H460 = system: NCI-H460
786-0 = system: 786-0
TK-10 = system: TK-10
SK-MEL-28 = system: SK-MEL-28
SK-MEL-5 = system: SK-MEL-5
A498 = system: A498
SK-OV-3 = system: SK-OV-3
BT-549 = system: BT-549
HCT-15 = system: HCT-15
OVCAR-4 = system: OVCAR-4
SF-295 = system: SF-295
SW-620 = system: SW-620
MDA-N = system: MDA-N
UO-31 = system: UO-31
NCI-H522 = system: NCI-H522
SF-539 = system: SF-539
ACHN = system: ACHN
MDA-MB-435 = system: MDA-MB-435
SK-MEL-2 = system: SK-MEL-2
CAKI-1 = system: CAKI-1
MOLT-4 = system: MOLT-4
MDA-MB-231 = system: MDA-MB-231
SR = system: SR
OVCAR-5 = system: OVCAR-5
HOP-62 = system: HOP-62
HCC 2998 = system: HCC 2998

Measured: GI50

CO[P@@]1(=O)O[C@@H](c2ccccc2)[C@H](O)[C@]1(O)c1ccccc1
inactive: HL-60 > 100 µM | RXF 393 > 100 µM | CCRF-CEM > 100 µM | COLO 205 > 100 µM | SF-268 > 100 µM | KM12 > 100 µM | EKVX 24.9 µM | PC-3 > 100 µM | IGROV-1 > 100 µM | NCI-H226 > 100 µM | HOP-92 > 100 µM | SN12C > 100 µM | UACC-62 > 100 µM | HT-29 34 µM | MCF7 > 100 µM | DU-145 > 100 µM | T47D > 100 µM | NCI-H23 > 100 µM | NCI/ADR-RES > 100 µM | K562 > 100 µM | U-251 > 100 µM | Hs-578T > 100 µM | LOX IMVI > 100 µM | Malme-3M > 100 µM | A549 > 100 µM | OVCAR-3 > 100 µM | OVCAR-8 > 100 µM | UACC-257 > 100 µM | M14 > 100 µM | RPMI-8226 > 100 µM | SNB-75 > 100 µM | HCT-116 > 100 µM | SNB-19 > 100 µM | NCI-H460 > 100 µM | 786-0 > 100 µM | TK-10 > 100 µM | SK-MEL-28 > 100 µM | SK-MEL-5 > 100 µM | A498 > 100 µM | SK-OV-3 > 100 µM | BT-549 > 100 µM | OVCAR-4 > 100 µM | SF-295 > 100 µM | SW-620 > 100 µM | MDA-N > 100 µM | UO-31 > 100 µM | NCI-H522 > 100 µM | SF-539 > 100 µM | ACHN > 100 µM | MDA-MB-435 > 100 µM | SK-MEL-2 > 100 µM | CAKI-1 > 100 µM | MOLT-4 > 100 µM | MDA-MB-231 > 100 µM | SR > 100 µM
> 100 µM: HCT-15

C=C1C(=O)C2=C[C@H]1C[C@H](O)C(=O)[C@]1(C)CCCC(C)(C)[C@H]1C[C@H]2O
active: HL-60 0.237 µM | RXF 393 0.315 µM | CCRF-CEM 0.0488 µM | COLO 205 0.638 µM | MCF7 0.388 µM | T47D 1.11 µM | K562 0.215 µM | LOX IMVI 0.916 µM | Malme-3M 0.83 µM | A549 0.665 µM | RPMI-8226 0.235 µM | 786-0 0.959 µM | TK-10 0.787 µM | SW-620 0.583 µM | NCI-H522 0.0428 µM | ACHN 0.452 µM | MOLT-4 0.979 µM | SR 0.358 µM
inactive: OVCAR-5 1.93 µM | SF-268 4.38 µM | KM12 2.93 µM | EKVX 1.73 µM | PC-3 1.92 µM | IGROV-1 3.6 µM | NCI-H226 10.5 µM | HOP-92 1.49 µM | SN12C 1.77 µM | UACC-62 1.59 µM | HT-29 1.47 µM | DU-145 1.77 µM | NCI-H23 1.63 µM | NCI/ADR-RES 1.67 µM | U-251 1.32 µM | Hs-578T 2.76 µM | OVCAR-3 2.02 µM | OVCAR-8 2.33 µM | UACC-257 1.86 µM | M14 1.52 µM | SNB-75 5.58 µM | HCT-116 1.63 µM | HOP-62 12.9 µM | SNB-19 16.1 µM | NCI-H460 2.88 µM | SK-MEL-28 1.73 µM | A498 1.86 µM | SK-OV-3 12.8 µM | BT-549 2.16 µM | OVCAR-4 3.94 µM | SF-295 7.94 µM | MDA-N 1.93 µM | UO-31 2.06 µM | SF-539 1.33 µM | MDA-MB-435 2.65 µM | SK-MEL-2 7.19 µM | CAKI-1 1.48 µM | MDA-MB-231 1.32 µM
0.406 µM: HCT-15

CC(=O)c1sc(=N)n(-c2c(C)cccc2C)c1C
inactive: HL-60 > 100 µM | OVCAR-5 > 100 µM | RXF 393 > 100 µM | CCRF-CEM > 100 µM | COLO 205 > 100 µM | SF-268 > 100 µM | KM12 > 100 µM | EKVX > 100 µM | PC-3 > 100 µM | IGROV-1 > 100 µM | NCI-H226 > 100 µM | HCC 2998 > 100 µM | SN12C > 100 µM | UACC-62 > 100 µM | HT-29 > 100 µM | MCF7 > 100 µM | DU-145 > 100 µM | T47D > 100 µM | NCI-H23 > 100 µM | NCI/ADR-RES > 100 µM | K562 > 100 µM | U-251 > 100 µM | Hs-578T > 100 µM | LOX IMVI > 100 µM | Malme-3M > 100 µM | A549 > 100 µM | OVCAR-3 > 100 µM | M14 > 100 µM | RPMI-8226 > 100 µM | SNB-75 > 100 µM | HOP-62 > 100 µM | SNB-19 > 100 µM | NCI-H460 > 100 µM | 786-0 > 100 µM | TK-10 > 100 µM | SK-MEL-28 > 100 µM | SK-MEL-5 > 100 µM | A498 > 100 µM | SK-OV-3 > 100 µM | BT-549 > 100 µM | OVCAR-4 > 100 µM | SW-620 > 100 µM | MDA-N > 100 µM | UO-31 > 100 µM | NCI-H522 > 100 µM | SF-539 > 100 µM | ACHN > 100 µM | MDA-MB-435 > 100 µM | SK-MEL-2 > 100 µM | MOLT-4 > 100 µM | MDA-MB-231 > 100 µM | SR > 100 µM
> 100 µM: HCT-15
